These results are taken from publication PMC7146544, “Dual Plasmepsin-Targeting Antimalarial Agents Disrupt Multiple Stages of the Malaria Parasite Life Cycle” (Cell Host & Microbe, 2020).

The nature of data set [1]: Pharmacokinetic attributes (no method given). Conditions: in vivo.
A further data set concerns P. knowlesi. Put plainly: P. knowlesi drug sensitivity assay. Conditions: 48 h, blood stage parasites, read-out: EC50, inhibition of P. knowlesi growth. It counts as cell-based, Plasmodium knowlesi. As to the method:
The drug sensitivity assays were performed in 96-well plates using 50 μL culture at 0.5% parasitemia and 2% hematocrit. The compounds were serially diluted in 1% DMSO. Parasite growth assays were performed for 48 h. Parasite cultures were then fixed with 50 μL 0.25% glutaraldehyde for 30 min at room temperature. The culture supernatants were removed and the cells were stained with 5% SYBR Green in the dark for 30 min. Parasitemia was defined by the proportion of Alexa 488-A positive cells in 50,000 recorded events using LSR II analyzer (BD). The percentage of parasite growth was normalized with the DMSO vehicle control group and the highest-dosage group, and plotted as a dose-response curve in Prism 7.

In data set [2] the test system is P. berghei. Description: Dose ranging test for P. berghei infection in mice. It is filed as in vivo, Plasmodium berghei. How it is done:
Control mice were treated orally with chloroquine for 4 days under q.d. dosing regimen at 10 mpk/day. From day 2 to 30 post infection, parasitemia was measured daily by flow cytometry and microscopy, as described above. Survival of animals to day 30 post infection, with no detectable parasites in the peripheral blood, were considered to be cured (i.e., 100% efficacy).

For another data set, the system named is P. falciparum. Description: P. falciparum humanized NOD-scid IL2R_null mouse model. How it is done:
Compounds were tested in the murine P. falciparum SCID model ([Angulo-Barturen et al., 2008]). […] The mice were intravenously infected with 2 × 10^7 P. falciparum Pf3D7-infected erythrocytes (day 0) ([Angulo-Barturen et al., 2008]). On day 3 after infection, mice were randomly allocated to treatments that were administered once a day for 4 consecutive days (n = 3 mice) by oral gavage at 10 mL/kg. Parasitemia was measured by microscopy. Chimerism was monitored by flow cytometry using anti-murine erythrocyte TER119 monoclonal antibody (PharMingen, San Diego, CA) and SYTO-16 and then analyzed by flow cytometry in serial 2 μL blood samples taken every 24 h until assay completion.

The nature of data set [3]: Bioanalytical determination of WM382 in mouse blood by LC-MS/MS. It counts as in vivo. Conditions: SCID (huSCID), whole blood, po, huSCID mice. As to the method: Serial samples of peripheral blood (25 μL) were taken from the mice of the efficacy experiment in the murine P. falciparum SCID model by tail puncture at 1, 2, 4, 6 and 24 h post first and last drug administration. The samples were immediately lysed by mixing with 25 μL of water, immediately frozen on dry ice and stored at −80°C until bioanalysis (carried out at SBQ, Reinach, Switzerland). The compounds were extracted from 10 μL of each lysate with 50 μL acetonitrile containing the internal standards (reserpine at 100 ng/mL). After a centrifugation step at 50000 g for 10 min, an aliquot of 50 μL of the supernatant was transferred to an autosampler vial and analyzed. The compounds were quantified by LC-MS/MS in the selected reaction monitoring mode using HESI ionization in positive ion mode, using a TSQ Quantum Access Mass spectrometer (Thermo Fisher Scientific, San Jose, CA, USA). The compound concentration versus time data was determined.

In the next data set the test system is P. berghei liver stages. Description: In vitro analysis of P. berghei liver parasites in HepG2 cells. It counts as cell-based, Plasmodium berghei. Conditions: 100 nM from 24 hpi. How it is done: (§1) To infect cells, freshly isolated PbmCherryLuci salivary gland sporozoites were resuspended in complete medium and 10^4 sporozoites added to each well (MOI 0.34) before spinoculation at 500 x g for 3 min. Sporozoites were allowed to infect cells for 3 h before washing with complete medium. […] The compound containing medium was changed the next morning before 48 hpi to prevent removal of detached cells and merosomes in the supernatant at later time points ([Sturm et al., 2006]). To measure inhibition of parasitised cell detachment in the treated cultures, each well was imaged for mCherry at 20x magnification using an Opera Phenix High Content Screening System (PerkinElmer) at 48 hpi (live cell microscopy) and again at 65 hpi following fixation with 4% formalin in PBS, and the number of mCherry^+ parasites counted using the Columbus Image Data Storage and Analysis System (PerkinElmer). Cell detachment was calculated as the percent of parasites lost from the monolayer between 48 – 65 hpi. The culture supernatant containing merosomes and detached parasitised cells from each well was collected at 65 hpi, washed once in complete media by centrifugation at 500 x g for 3 min, then i.v. injected into individual male Swiss mice. Daily Giemsa stained thin blood smears were monitored for patent blood infection as described previously.
Following fixation at 65 hpi, infected hepatocyte monolayers were blocked and permeabilized in PBS containing 1% BSA and 0.1% Triton X-100 (blocking buffer) for 1 h before incubation with polyclonal Goat-anti-PbUIS4 (1:500) and Rabbit-anti-PyMSP1_19 antiserum (1:200) for 1 h. After 3 washes in PBS to remove primary antibodies, wells were incubated sequentially with secondary antibodies recognizing Goat IgG (Alexa Fluor 488; 1:500) and then Rabbit IgG (Alexa Fluor 633; 1:500) for 1 h, separated by 3 washes with PBS. All antibody incubations were performed in blocking buffer at room temperature protected from light, and 2 μg/mL DAPI was added to the last incubation with secondary antibody to stain DNA. The center of each well was then imaged across a 12 μm z stack at 63x magnification using an Opera Phenix (PerkinElmer) for the above fluorochromes as well as mCherry to reveal parasite cytoplasm. Data was transferred to Columbus (PerkinElmer) and at least 70 parasites per condition were then manually scored based on a previously described staging system ([Graewe et al., 2011]). […] More extensive membrane invaginations surrounding individual nuclei with well segmented parasite cytoplasm and intact UIS4 staining were scored as ‘merozoite’ stage. ‘Egressed’ parasites were classified as either well segmented merozoite stages with evidence for PVM breakdown, or largely intact PVM vacuoles in which significant loss of parasite material was evident (Figure S6).

The test system of data set [4] is P. berghei. Description: Merosome transfer from treated HepG2 cultures to mice. It is filed as in vivo, Plasmodium berghei. Conditions: HepG2 cultures treated with 1 nM, washed. How it is done: as §1

“Also recorded” adds a separate entry of the source. Like-named read-outs stand apart in the source and are kept apart here.

For `CC(NC(=O)c1cccc(C(c2ccccc2)N2C(=N)NC(C)(C(C)C)CC2=O)c1)c1ccccc1` (racemic) [WM4], the pharmacokinetic attributes result in data set [1] was “did not have desirable pharmacokinetic attributes”.
On to `CCC1(CC)CC(=O)N([C@@H]2CCOc3ccc(C(=O)N[C@H]4CC(C)(C)Oc5ccccc54)cc32)C(=N)N1` [WM382], for which the EC50 in the data set on P. knowlesi (Plasmodium knowlesi) worked out at 200 pM; in the data set on P. knowlesi it was 180 ± 60 pM. Also, in the data set with P. berghei [2] (WM382 1 mpk oral b.i.d. 4 days), the “day post-infection from which parasites were detected” value worked out at 2 days. Besides, the “day post-infection after which parasites were detectable” value in the data set on P. berghei [2] (WM382 3 mpk oral b.i.d. 4 days) was above 12 days. The “outcome to day 30 post-infection” value with P. berghei [2] (WM382 3 mpk oral b.i.d. 4 days, n = 4) is on record as “one mouse remaining parasite-free on day 30 pi”; with P. berghei [2] (WM382 10 mpk oral b.i.d. 4 days), “remained parasite-free”; in the data set with P. berghei [2] (WM382 30 mpk oral b.i.d. 4 days), “remained parasite-free”; with P. berghei [2] (WM382 oral q.d. 60, 30 or 10 mpk/day, 4 days) it was “cured all mice”. The results for the “day by which mice were cleared of parasitemia” value with P. falciparum (WM382 3 mpk oral q.d. 4 days from day 3), in the data set on P. falciparum (WM382 10 mpk oral q.d. 4 days from day 3) and in the data set on P. falciparum (WM382 30 mpk oral q.d. 4 days from day 3) were at most 7 days, at most 7 days and at most 6 days, respectively. Further, the “efficacy against P. falciparum including parasitemia clearance rate, compared with chloroquine” value with P. falciparum (in vivo and in vitro) is on record as “at least equivalent to chloroquine”. Also, the AUC in data set [3] (1 mg/kg, oral daily dose 1 mg/kg, read-out: AUC dose 1) was found to be 0.06 ± 0.03 µM·h; in data set [3] (1 mg/kg, oral daily dose 1 mg/kg, read-out: AUC dose 4), 0.1 ± 0.04 µM·h; in data set [3] (3 mg/kg, oral daily dose 3 mg/kg, read-out: AUC dose 1), 0.5 ± 0.18 µM·h; in data set [3] (3 mg/kg, oral daily dose 3 mg/kg, read-out: AUC dose 4), 0.37 ± 0.21 µM·h; in data set [3] (10 mg/kg, oral daily dose 10 mg/kg, read-out: AUC dose 1) it was 2.61 ± 1 µM·h; in data set [3] (10 mg/kg, oral daily dose 10 mg/kg, read-out: AUC dose 4), 2.62 ± 1.03 µM·h. Besides, the AUC in data set [3] (30 mg/kg, oral daily dose 30 mg/kg, read-out: AUC dose 1) was 7.04 ± 1.53 µM·h; in data set [3] (30 mg/kg, oral daily dose 30 mg/kg, read-out: AUC dose 4) it was 5.17 ± 1.22 µM·h. In the data set on P. berghei liver stages, the “detachment of parasitized HepG2 cells at 65 hpi” value was “decrease in detachment; also recorded: reduced detachment of parasitized HepG2 cells”. Also, in the data set with P. berghei liver stages, the “egress of exoerythrocytic merozoites from hepatocytes in vitro” value is recorded as “incomplete inhibitory effect; also recorded: reduced rates”. Further, the “liver parasite size and maturity at 65 hpi” value in the data set on P. berghei liver stages is recorded as “increased size of parasites; also recorded: accumulation of larger, mature liver parasites containing merozoites without PVM degradation”. The “merozoite formation by liver stages” value in the data set with P. berghei liver stages is given as “normal”. For the same compound, the “liver parasite number or size at 48 hpi” value with P. berghei liver stages (HepG2 cells) is given as “did not reduce parasite number or size”. In the data set with P. berghei [4], the “blood infection of naive mice after i.v. injection of 65 hpi supernatants” value is “Blood infection was initiated in mice”.

For orientation: EC50 means the concentration needed to bring the measured effect to its halfway point. One may read the AUC as concentration integrated over time.
